Several values for one entry are separate records, joined by “and”; a condition that tells them apart may be missing. Equal entries are not always repeated.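 Growth conditions: 96-well plates. Treatment: test compound, 48 hours, 5 concentrations. Analysis: linear interpolation between bracketing concentrations; unreached endpoints set to highest concentration. Abbreviation: GI50, concentration required for 50% inhibition of growth. Definition used: TGI = concentration required for complete inhibition of growth.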
How the values were obtained:
Assay in all cases: DTP human tumour cell line panel, 48 h
MOLT-4 leukemia = system: MOLT-4 leukemia
OVCAR-3 ovarian = system: OVCAR-3 ovarian
MALME-3M melanoma = system: MALME-3M melanoma
NCI-H23 lung = system: NCI-H23 lung
KM12 colon = system: KM12 colon
XF 498 CNS = system: XF 498 CNS
HL-60(TB) leukemia = system: HL-60(TB) leukemia
OVCAR-8 ovarian = system: OVCAR-8 ovarian
ACHN renal = system: ACHN renal
DMS 273 small cell lung = system: DMS 273 small cell lung
U251 CNS = system: U251 CNS
CCRF-CEM leukemia = system: CCRF-CEM leukemia
HT29 colon = system: HT29 colon
SN12C renal = system: SN12C renal
HCT-116 colon = system: HCT-116 colon
RPMI-8226 leukemia = system: RPMI-8226 leukemia
OVCAR-5 ovarian = system: OVCAR-5 ovarian
IGROV1 ovarian = system: IGROV1 ovarian
UACC-257 melanoma = system: UACC-257 melanoma
M14 melanoma = system: M14 melanoma
786-0 renal = system: 786-0 renal
SF-539 CNS = system: SF-539 CNS
SF-295 CNS = system: SF-295 CNS
A549 NSCLC = system: A549 NSCLC
HOP-62 NSCLC = system: HOP-62 NSCLC
SK-MEL-28 melanoma = system: SK-MEL-28 melanoma
SNB-75 CNS = system: SNB-75 CNS
UO-31 renal = system: UO-31 renal
UACC-62 melanoma = system: UACC-62 melanoma
HCC-2998 colon = system: HCC-2998 colon
HCT-15 colon = system: HCT-15 colon
DLD-1 colon = system: DLD-1 colon
LXFL 529 NSCLC = system: LXFL 529 NSCLC
SK-MEL-2 melanoma = system: SK-MEL-2 melanoma
SK-MEL-5 melanoma = system: SK-MEL-5 melanoma
RXF-631 renal = system: RXF-631 renal
NCI-H522 lung = system: NCI-H522 lung
SF-268 CNS = system: SF-268 CNS
NCI-H460 lung = system: NCI-H460 lung
CAKI-1 renal = system: CAKI-1 renal
SW-620 colon = system: SW-620 colon
TK-10 renal = system: TK-10 renal
A498 renal = system: A498 renal
EKVX NSCLC = system: EKVX NSCLC
LOX IMVI melanoma = system: LOX IMVI melanoma
RXF 393 renal = system: RXF 393 renal
OVCAR-4 ovarian = system: OVCAR-4 ovarian
SNB-78 CNS = system: SNB-78 CNS
K-562 leukemia = system: K-562 leukemia
NCI-H226 lung = system: NCI-H226 lung
HS 578T breast = system: HS 578T breast
SK-OV-3 ovarian = system: SK-OV-3 ovarian
MDA-N = system: MDA-N
DU-145 prostate = system: DU-145 prostate
MDA-MB-231 breast = system: MDA-MB-231 breast
HOP-92 NSCLC = system: HOP-92 NSCLC
SR leukemia = system: SR leukemia
COLO 205 colon = system: COLO 205 colon
SNB-19 CNS = system: SNB-19 CNS
PC-3 prostate = system: PC-3 prostate
MCF7 breast = system: MCF7 breast
KM20L2 colon = system: KM20L2 colon
T-47D breast = system: T-47D breast
BT-549 breast = system: BT-549 breast
MDA-MB-435 = system: MDA-MB-435

CC12CCCCC1C(=O)C2(Cl)Cl (stereo unspecified) showed a TGI (MOLT-4 leukemia) of 5440 nM, a TGI (OVCAR-3 ovarian) of 3580 nM and a TGI (MALME-3M melanoma) of 4190 nM. It also gave a TGI (NCI-H23 lung) of 8590 nM, a TGI (KM12 colon) of 4970 nM and a TGI (XF 498 CNS) of 4190 nM. For the same compound, the TGI (HL-60(TB) leukemia) was 3880 nM, the TGI (OVCAR-8 ovarian) was 5160 nM and the TGI (ACHN renal) was 5910 nM. It also gave a TGI (DMS 273 small cell lung) of 5400 nM, a TGI (U251 CNS) of 5560 nM and a TGI (CCRF-CEM leukemia) of 5450 nM. For the same compound, the TGI (HT29 colon) was 3060 nM, the TGI (SN12C renal) was 12300 nM and the TGI (HCT-116 colon) was 3510 nM. It also gave a TGI (RPMI-8226 leukemia) of 3790 nM, a TGI (OVCAR-5 ovarian) of 8960 nM and a TGI (IGROV1 ovarian) of 9950 nM. For the same compound, the TGI (UACC-257 melanoma) was 5630 nM, the TGI (M14 melanoma) was 5320 nM and the TGI (786-0 renal) was 4730 nM. It also gave a TGI (SF-539 CNS) of 5180 nM, a TGI (SF-295 CNS) of 3380 nM and a TGI (A549 NSCLC) of 11200 nM. For the same compound, the TGI (HOP-62 NSCLC) was 4920 nM, the TGI (SK-MEL-28 melanoma) was 4180 nM and the TGI (SNB-75 CNS) was 18300 nM. It also gave a TGI (UO-31 renal) of 5230 nM, a TGI (UACC-62 melanoma) of 6090 nM and a TGI (HCC-2998 colon) of 4220 nM. For the same compound, the TGI (HCT-15 colon) was 11300 nM, the TGI (DLD-1 colon) was 6220 nM and the TGI (LXFL 529 NSCLC) was 6000 nM. For the same compound, the TGI (SK-MEL-2 melanoma) was 4410 nM, the TGI (SK-MEL-5 melanoma) was 3820 nM and the TGI (RXF-631 renal) was 5000 nM. For the same compound, the TGI (NCI-H522 lung) was 4610 nM, the TGI (SF-268 CNS) was 14600 nM and the TGI (NCI-H460 lung) was 6370 nM. It also gave a TGI (CAKI-1 renal) of 10100 nM, a TGI (SW-620 colon) of 4470 nM and a TGI (TK-10 renal) of 11300 nM. For the same compound, the TGI (A498 renal) was 12700 nM, the TGI (EKVX NSCLC) was 11000 nM and the TGI (LOX IMVI melanoma) was 6100 nM. For the same compound, the TGI (RXF 393 renal) was 14300 nM, the TGI (OVCAR-4 ovarian) was 12500 nM and the TGI (SNB-78 CNS) was 17900 nM. The TGI (K-562 leukemia) was 4370 nM.
With O=[N+]([O-])c1cccc2nc3ccccc3c(NCCN(CCO)CCO)c12 the TGI (NCI-H226 lung) was 4.1 nM and 19.3 nM, the GI50 (MOLT-4 leukemia) was 4.13 nM and the TGI (MOLT-4 leukemia) was 90.3 nM. The TGI (OVCAR-3 ovarian) was 14.4 nM, the TGI (HS 578T breast) was 30.8 nM and the TGI (SK-OV-3 ovarian) was 177 nM. For the same compound, the TGI (MALME-3M melanoma) was 6.49 nM, the TGI (NCI-H23 lung) was 5.83 nM and the TGI (KM12 colon) was 20.6 nM. The TGI (XF 498 CNS) was 24 nM, the TGI (MDA-N) was 2.9 nM and the TGI (DU-145 prostate) was 10.8 nM. For the same compound, the TGI (OVCAR-8 ovarian) was 23.1 nM and 16.6 nM, the TGI (ACHN renal) was 20.5 nM and 34.5 nM and the TGI (DMS 273 small cell lung) was 42.2 nM and 24.6 nM. For the same compound, the TGI (MDA-MB-231 breast) was 9.7 nM, the TGI (U251 CNS) was 26.1 nM and the GI50 (CCRF-CEM leukemia) was 15.6 nM. The TGI (CCRF-CEM leukemia) was 109 nM, the TGI (HOP-92 NSCLC) was 17.1 nM and the TGI (HT29 colon) was 20.2 nM. The TGI (SN12C renal) was 28.7 nM and 85.9 nM, the TGI (HCT-116 colon) was 31.1 nM and the TGI (RPMI-8226 leukemia) was 97.1 nM. For the same compound, the TGI (OVCAR-5 ovarian) was 23.4 nM, the TGI (IGROV1 ovarian) was 26.5 nM and the GI50 (UACC-257 melanoma) was 49.8 nM. For the same compound, the TGI (UACC-257 melanoma) was 224 nM and 23.8 nM, the TGI (SR leukemia) was 110 nM and the TGI (M14 melanoma) was 8.21 nM. The TGI (786-0 renal) was 29.6 nM, the GI50 (SF-539 CNS) was 13.7 nM and the TGI (SF-539 CNS) was 26.6 nM and 59.4 nM. The TGI (COLO 205 colon) was 14.6 nM, the TGI (SF-295 CNS) was 54.9 nM and 17 nM and the TGI (SNB-19 CNS) was 108 nM and 346 nM. The TGI (A549 NSCLC) was 33.4 nM, the TGI (HOP-62 NSCLC) was 9.91 nM and the GI50 (SK-MEL-28 melanoma) was 10.3 nM. For the same compound, the TGI (SK-MEL-28 melanoma) was 27 nM and 23 nM, the TGI (SNB-75 CNS) was 28.6 nM and the TGI (PC-3 prostate) was 10.9 nM. It also gave a GI50 (UO-31 renal) of 257 nM, a TGI (UACC-62 melanoma) of 11.4 nM and a TGI (MCF7 breast) of 32.2 nM. The TGI (HCC-2998 colon) was 6.74 nM, the TGI (HCT-15 colon) was 66.8 nM and 169 nM and the TGI (KM20L2 colon) was 69 nM and 29 nM. For the same compound, the TGI (DLD-1 colon) was 65.8 nM and 580 nM, the TGI (LXFL 529 NSCLC) was 108 nM and 24.3 nM and the TGI (SK-MEL-2 melanoma) was 10.2 nM. For the same compound, the TGI (T-47D breast) was 114 nM, the TGI (SK-MEL-5 melanoma) was 5.74 nM and 13 nM and the TGI (RXF-631 renal) was 108 nM and 40.5 nM. It also gave a TGI (BT-549 breast) of 8.75 nM, a TGI (NCI-H522 lung) of 3.89 nM and a TGI (MDA-MB-435) of 2.83 nM. The TGI (SF-268 CNS) was 29.6 nM and 113 nM, the TGI (NCI-H460 lung) was 8.91 nM and the TGI (CAKI-1 renal) was 23.2 nM and 62.2 nM. For the same compound, the TGI (SW-620 colon) was 23.5 nM and 111 nM, the TGI (TK-10 renal) was 138 nM and the TGI (A498 renal) was 11.6 nM. The GI50 (EKVX NSCLC) was 12.8 nM, the TGI (EKVX NSCLC) was 41.1 nM and 52.4 nM and the GI50 (LOX IMVI melanoma) was 11.8 nM. The TGI (LOX IMVI melanoma) was 31.9 nM and 33.1 nM, the TGI (RXF 393 renal) was 4.47 nM and the TGI (OVCAR-4 ovarian) was 14.7 nM and 81.2 nM. For the same compound, the TGI (SNB-78 CNS) was 194 nM and 52.3 nM, the GI50 (K-562 leukemia) was 4.76 nM and the TGI (K-562 leukemia) was 28.3 nM.

Reference: PubChem BioAssay (NCI)
